For data set [1] the following is noted: cited from earlier work.
Data set [2] in a line: Solubility of gemfibrozil in PEG 400 over a concentration range. Format: physicochemical. The note with it: standing upright at room temperature overnight. The procedure: A concentrated stock solution of gemfibrozil was prepared in PEG 400. Gemfibrozil was evaluated for its solubility in PEG 400 over concentration range to determine an upper concentration that could be used to prepare a stock solution of gemfibrozil in liquid form. On the day of preparation gemfibrozil was dissolved in the PEG 400 at the indicated concentration. All samples were clear upon mixing. Following mixing, samples were stored standing upright at room temperature overnight.

Data set [3] in a line: Solubility testing of gemfibrozil in solvents/cosolvents at 12 mg/ml and 32 mg/ml. It is filed as physicochemical. Conditions: tested at 12 and 32 mg/ml. The procedure:
Two doses of gemfibrozil were considered for each solvent/cosolvent. A low dose gemfibrozil preparation: 60 mg gemfibrozil in 5 ml of solvent/cosolvent (12 mg/ml dose), and a high dose gemfibrozil preparation: 160 mg gemfibrozil in 5 mL of solvent/cosolvent (32 mg/ml dose). Table 5 below illustrates that the first six solvent/cosolvents achieved gemfibrozil solubilization at both the 12 mg/ml dose and the 32 mg/ml dose. The solvent/cosolvents included the sodium carbonate/bicarbonate buffer having a pH of 10.5, polyethylene glycol (PEG) 400, glyceryl monolinoleate, propylene glycol dicaprylate/dicaprate, propylene glycol, and glyceryl monooleate.
The citrate buffer having a pH of 4.5 with tocopheryl polyethylene glycol succinate (TPGS) achieved gemfibrozil solubilization only the 12 mg/ml dose. The remainder of the solvents/cosolvents were not able to solubilize gemfibrozil at either the low dose or the high dose concentration.

Where two headings read alike, the source gives them in different places.

`Cc1ccc(C)c(OCCCC(C)(C)C(=O)O)c1` [Gemfibrozil, 5-(2,5-dimethylphenoxy)-2,2-dimethyl-pentanoic acid]: the solubility of gemfibrozil in data set [1] (in DMSO) is approximately 16 mg/mL; in data set [1] (in ethanol), “approximately 30 mg/ml”; in data set [1] (in water) it was “approximately 0.03 mg/ml”. For the same molecule, the “solubility limit of gemfibrozil in PEG 400” value in data set [2] is listed as 21.3 % w/w. Also, the “Gemfibrozil Solubility” value in data set [3] (Glycerol and Polysorbate 80) is “Not soluble”; in data set [3] (Glyceryl monolinoleate), “Soluble at 12 mg/ml and 32 mg/ml”; in data set [3] (Glyceryl monooleate), “Soluble at 12 mg/ml and 32 mg/ml”; in data set [3] (Polyethylene glycol 400) it was “Soluble at 12 mg/ml and 32 mg/ml”; in data set [3] (Propylene glycol dicaprylate/dicaprate), “Soluble at 12 mg/ml and 32 mg/ml”; in data set [3] (Propylene glycol), “Soluble at 12 mg/ml and 32 mg/ml”. The “Gemfibrozil Solubility” value was “Not soluble” in data set [3] (Soybean oil); “Not soluble” in data set [3] (pH 4.5 Citrate buffer and Poloxamer P188); “Not soluble” in data set [3] (pH 4.5 Citrate buffer and Solutol HS15); “Soluble at 12 mg/ml” in data set [3] (pH 4.5 citrate buffer and TPGS); “Soluble at 12 mg/ml and 32 mg/ml” in data set [3] (pH 10.5 Sodium carbonate/bicarbonate buffer).

The values are drawn from patent US20260027048A1, “GEMFIBROZIL FORMULATION” (POLARYX THERAPEUTICS, INC., priority 2022, published 2026).
